Measurements: ChEMBL document CHEMBL1201862, “PubChem BioAssay data set” (2004)
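These data come from cells grown in 96-well plates and exposed to compound for 48 hours at five concentrations. The concentration for 50% growth inhibition is given as GI50.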 The source made the active and inactive calls. Cut-off read from the data, not from the text of the source: active = GI50 up to about 1.1 µM and inactive = higher.

Legend:
Assay in all cases: NCI-60 cell line screen, 48 h
EKVX = tested on: EKVX
K562 = tested on: K562
DLD-1 = tested on: DLD-1
HCT-116 = tested on: HCT-116
COLO 205 = tested on: COLO 205
RXF 393 = tested on: RXF 393
IGROV-1 = tested on: IGROV-1
UACC-62 = tested on: UACC-62
TK-10 = tested on: TK-10
OVCAR-3 = tested on: OVCAR-3
HOP-92 = tested on: HOP-92
A549 = tested on: A549
XF498 = tested on: XF498
OVCAR-4 = tested on: OVCAR-4
A498 = tested on: A498
SW-620 = tested on: SW-620
U-251 = tested on: U-251
SF-539 = tested on: SF-539
LXFL 529 = tested on: LXFL 529
KM-20L2 = tested on: KM-20L2
UACC-257 = tested on: UACC-257
NCI-H23 = tested on: NCI-H23
SN12C = tested on: SN12C
DMS-114 = tested on: DMS-114
SNB-78 = tested on: SNB-78
SK-MEL-5 = tested on: SK-MEL-5
786-0 = tested on: 786-0
OVCAR-8 = tested on: OVCAR-8
HT-29 = tested on: HT-29
MOLT-4 = tested on: MOLT-4
CCRF-CEM = tested on: CCRF-CEM
HCT-15 = tested on: HCT-15
SR = tested on: SR
NCI-H460 = tested on: NCI-H460
HL-60 = tested on: HL-60
HCC 2998 = tested on: HCC 2998
CAKI-1 = tested on: CAKI-1
NCI-H226 = tested on: NCI-H226
M14 = tested on: M14
ACHN = tested on: ACHN
Malme-3M = tested on: Malme-3M
SNB-19 = tested on: SNB-19
SK-MEL-28 = tested on: SK-MEL-28
SF-268 = tested on: SF-268
HOP-18 = tested on: HOP-18
LOX IMVI = tested on: LOX IMVI
DMS-273 = tested on: DMS-273
KM12 = tested on: KM12
SNB-75 = tested on: SNB-75
NCI-H522 = tested on: NCI-H522
OVCAR-5 = tested on: OVCAR-5
RXF 631 = tested on: RXF 631
M19-MEL = tested on: M19-MEL
HOP-62 = tested on: HOP-62
UO-31 = tested on: UO-31
SF-295 = tested on: SF-295
SK-OV-3 = tested on: SK-OV-3
RPMI-8226 = tested on: RPMI-8226
SK-MEL-2 = tested on: SK-MEL-2

Measured: GI50

C=CSCCC(N)C(=O)O (stereo unspecified)
> 100 µM: HCT-15
inactive: EKVX > 100 µM | K562 > 100 µM | DLD-1 > 100 µM | HCT-116 > 100 µM | COLO 205 > 100 µM | RXF 393 > 100 µM | IGROV-1 > 100 µM | UACC-62 > 100 µM | TK-10 > 100 µM | OVCAR-3 > 100 µM | HOP-92 > 100 µM | A549 > 100 µM | XF498 > 100 µM | OVCAR-4 > 100 µM | A498 > 100 µM | SW-620 > 100 µM | U-251 > 100 µM | SF-539 > 100 µM | LXFL 529 > 100 µM | KM-20L2 > 100 µM | UACC-257 > 100 µM | NCI-H23 > 100 µM | SN12C > 100 µM | DMS-114 > 100 µM | SNB-78 > 100 µM | SK-MEL-5 > 100 µM | 786-0 > 100 µM | OVCAR-8 > 100 µM | HT-29 > 100 µM | MOLT-4 > 100 µM | CCRF-CEM > 100 µM | SR > 100 µM | NCI-H460 > 100 µM | HL-60 > 100 µM | HCC 2998 > 100 µM | CAKI-1 > 100 µM | NCI-H226 > 100 µM | M14 > 100 µM | ACHN > 100 µM | Malme-3M > 100 µM | SNB-19 > 100 µM | SK-MEL-28 > 100 µM | SF-268 > 100 µM | HOP-18 > 100 µM | LOX IMVI > 100 µM | DMS-273 > 100 µM | KM12 > 100 µM | SNB-75 > 100 µM | NCI-H522 > 100 µM | OVCAR-5 > 100 µM | RXF 631 > 100 µM | M19-MEL > 100 µM | HOP-62 > 100 µM | UO-31 > 100 µM | SF-295 > 100 µM

CCOC(=O)c1ccc(/C(C)=N/NC(N)=S)cc1
inactive: EKVX 2.74 µM | K562 > 100 µM | DLD-1 > 100 µM | HCT-116 > 100 µM | COLO 205 > 100 µM | RXF 393 > 100 µM | IGROV-1 > 100 µM | SK-OV-3 > 100 µM | UACC-62 > 100 µM | TK-10 > 100 µM | OVCAR-3 > 100 µM | HOP-92 > 100 µM | A549 > 100 µM | XF498 > 100 µM | OVCAR-4 > 100 µM | A498 > 100 µM | SW-620 > 100 µM | U-251 > 100 µM | SF-539 > 100 µM | LXFL 529 > 100 µM | KM-20L2 > 100 µM | NCI-H23 > 100 µM | RPMI-8226 > 100 µM | SN12C > 100 µM | DMS-114 > 100 µM | SNB-78 > 100 µM | SK-MEL-5 > 100 µM | 786-0 > 100 µM | OVCAR-8 > 100 µM | MOLT-4 > 100 µM | CCRF-CEM > 100 µM | NCI-H460 > 100 µM | HL-60 > 100 µM | HCC 2998 > 100 µM | M14 > 100 µM | ACHN > 100 µM | SNB-19 > 100 µM | SK-MEL-28 > 100 µM | HOP-18 > 100 µM | LOX IMVI > 100 µM | DMS-273 > 100 µM | SNB-75 > 100 µM | RXF 631 > 100 µM | M19-MEL > 100 µM | HOP-62 > 100 µM | SF-295 > 100 µM
> 100 µM: HCT-15

CCOC(=O)/C=C1/C(CCCOCc2ccccc2)C2CCCC23CC2(CCN13)OCCO2 (stereo unspecified)
20.4 µM: HCT-15
inactive: EKVX 34.8 µM | K562 13.5 µM | DLD-1 19 µM | COLO 205 19.1 µM | RXF 393 6.32 µM | IGROV-1 24.7 µM | SK-OV-3 43 µM | UACC-62 15.2 µM | TK-10 36.2 µM | OVCAR-3 18.3 µM | A549 18.9 µM | XF498 12.3 µM | OVCAR-4 24.3 µM | A498 19.9 µM | SW-620 33.9 µM | U-251 20.1 µM | LXFL 529 22.2 µM | KM-20L2 22.3 µM | UACC-257 19.5 µM | NCI-H23 12.5 µM | RPMI-8226 6.24 µM | SN12C 25.5 µM | DMS-114 13.9 µM | SNB-78 25.9 µM | SK-MEL-5 15.7 µM | OVCAR-8 24.8 µM | HT-29 16.9 µM | MOLT-4 11.4 µM | CCRF-CEM 19.5 µM | NCI-H460 18.7 µM | HL-60 10.2 µM | HCC 2998 25.8 µM | NCI-H226 22.6 µM | ACHN 22.3 µM | Malme-3M 16.1 µM | SNB-19 33.3 µM | SK-MEL-28 18.4 µM | SF-268 42 µM | HOP-18 21.3 µM | LOX IMVI 18.1 µM | DMS-273 16.8 µM | KM12 22.3 µM | SNB-75 2.99 µM | NCI-H522 6.82 µM | OVCAR-5 44 µM | RXF 631 30.1 µM | SK-MEL-2 17 µM | M19-MEL 19.6 µM | UO-31 17.2 µM | SF-295 23.6 µM

CCCCCCCCCC1CC(=O)OC2=C1C(=O)CCC2 (stereo unspecified)
inactive: EKVX > 100 µM | K562 > 100 µM | DLD-1 > 100 µM | HCT-116 > 100 µM | COLO 205 > 100 µM | RXF 393 > 100 µM | IGROV-1 > 100 µM | SK-OV-3 > 100 µM | UACC-62 > 100 µM | TK-10 > 100 µM | OVCAR-3 > 100 µM | HOP-92 > 100 µM | A549 > 100 µM | XF498 > 100 µM | OVCAR-4 > 100 µM | SW-620 > 100 µM | U-251 > 100 µM | SF-539 > 100 µM | LXFL 529 > 100 µM | KM-20L2 > 100 µM | UACC-257 > 100 µM | NCI-H23 > 100 µM | RPMI-8226 > 100 µM | SN12C > 100 µM | DMS-114 > 100 µM | SNB-78 > 100 µM | SK-MEL-5 > 100 µM | 786-0 > 100 µM | OVCAR-8 > 100 µM | HT-29 > 100 µM | MOLT-4 > 100 µM | CCRF-CEM > 100 µM | SR > 100 µM | NCI-H460 > 100 µM | HL-60 > 100 µM | HCC 2998 > 100 µM | CAKI-1 > 100 µM | NCI-H226 > 100 µM | M14 > 100 µM | ACHN > 100 µM | Malme-3M > 100 µM | SNB-19 > 100 µM | SK-MEL-28 > 100 µM | SF-268 > 100 µM | HOP-18 > 100 µM | LOX IMVI > 100 µM | DMS-273 > 100 µM | KM12 > 100 µM | SNB-75 > 100 µM | NCI-H522 > 100 µM | OVCAR-5 > 100 µM | RXF 631 > 100 µM | SK-MEL-2 > 100 µM | M19-MEL > 100 µM | HOP-62 > 100 µM | UO-31 > 100 µM | SF-295 > 100 µM
